Biological target: T1, apo-FRL-PSII (reaction centre PsbA3/PsbD3 sites) (Synechococcus sp. PCC 7335, UniProt B4WKI3+Z9EN74SDD1)
T1 construct: native monomeric core complex from FRL-acclimated cells, ~226 kDa modelled; His6 tag at C-terminus of PsbC2; lacks OEC, extrinsic subunits and PsbH2 in map; PsbF2 assignment tentative; one unknown helix; with Photosystem II CP47 reaction center protein; Photosystem II CP43 reaction center protein; Cytochrome b559 subunit alpha; Cytochrome b559 subunit beta; Photosystem II reaction center protein I; Photosystem II reaction center protein K
Assay: cryo-EM structure, […] Å
Type: binding
Settings: QA site; QB absent

SMILES: CC(C)=CCC/C(C)=C/CC/C(C)=C/CC/C(C)=C/CC/C(C)=C/CC/C(C)=C/CC/C(C)=C/CC/C(C)=C/CC/C(C)=C/CC1=CC(=O)C(C)=C(C)C1=O [plastoquinone]
- cryo-EM structure, 2.25 Å: one heme b, one plastoquinone, one NH-Fe ion
